Measured values taken from the supplement of paper PMC11368000.

What was measured:
Conditions in all cases: exposure time: 90 min
20084 [1] = donor line of iPSC-derived cardiomyocytes; assay: POD (EC10) for decrease in total cell number (cytotoxicity) vs vehicle; higher = less potent (higher point of departure)
In short: (§1)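 After 14 days of culture in 384-well plates, human iPSC-derived cardiomyocytes from 16 donors received 0.1, 1, 10 or 100 µM (final, 0.5% DMSO) for 90 min at 37 °C. Nuclei were then counted per field in MetaXpress from 10× images after Hoechst 33342 staining, and a 10% decrease in vehicle-normalised counts served as the benchmark. For each donor, the cytotoxicity point of departure came from a hierarchical Bayesian Hill fit.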

1531 = donor line of iPSC-derived cardiomyocytes; assay: as above
In short: as §1

11235 [2] = donor line of iPSC-derived cardiomyocytes; assay: as above
In short: as §1

1518 = donor line of iPSC-derived cardiomyocytes; assay: as above
In short: as §1

1565 = donor line of iPSC-derived cardiomyocytes; assay: as above
In short: as §1

20032 [3] = donor line of iPSC-derived cardiomyocytes; assay: as above
In short: as §1

1434 [4] = donor line of iPSC-derived cardiomyocytes; assay: as above
In short: as §1

1368 [5] = donor line of iPSC-derived cardiomyocytes; assay: as above
In short: as §1

1083 [6] = donor line of iPSC-derived cardiomyocytes; assay: as above
In short: as §1

1118 = donor line of iPSC-derived cardiomyocytes; assay: as above
In short: as §1

1535 [7] = donor line of iPSC-derived cardiomyocytes; assay: as above
In short: as §1

20084 [8] = assay: POD (EC95) for loss of peak frequency (asystole) vs vehicle; higher = less potent (higher point of departure)
Experimental: (§2)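 Human iPSC-derived cardiomyocytes from 16 donors were exposed for 90 min at 37 °C to each PFAS at 0.1, 1, 10 and 100 µM in 0.5% DMSO, 384-well plates. Kinetic Ca2+ flux (FLIPR) and Hoechst nuclei counts were normalised to vehicle wells and fitted with a hierarchical Bayesian Hill model to give donor-specific PODs: EC05 for beat-rate increase or decrease and for decay-to-rise ratio increase (QT proxy), EC95 for peak-frequency loss (asystole), EC10 for total cell number loss. 0.03 µM is the lower bound.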

30145 = donor line of iPSC-derived cardiomyocytes; assay: as above
Experimental: as §2

11235 [9] = assay: as above
Experimental: as §2

20032 [10] = assay: as above
Experimental: as §2

1434 [11] = assay: as above
Experimental: as §2

1368 [12] = assay: as above
Experimental: as §2

30171 = donor line of iPSC-derived cardiomyocytes; assay: as above
Experimental: as §2

1083 [13] = assay: as above
Experimental: as §2

1535 [14] = assay: as above
Experimental: as §2

Compound | POD vs vehicle 20084 [1] [µM] | POD vs vehicle 1531 [µM] | POD vs vehicle 11235 [2] [µM] | POD vs vehicle 1518 [µM] | POD vs vehicle 1565 [µM] | POD vs vehicle 20032 [3] [µM] | POD vs vehicle 1434 [4] [µM] | POD vs vehicle 1368 [5] [µM] | POD vs vehicle 1083 [6] [µM] | POD vs vehicle 1118 [µM] | POD vs vehicle 1535 [7] [µM] | POD vs vehicle 20084 [8] [µM] | POD vs vehicle 30145 [µM] | POD vs vehicle 11235 [9] [µM] | POD vs vehicle 20032 [10] [µM] | POD vs vehicle 1434 [11] [µM] | POD vs vehicle 1368 [12] [µM] | POD vs vehicle 30171 [µM] | POD vs vehicle 1083 [13] [µM] | POD vs vehicle 1535 [14] [µM]
NS(=O)(=O)C(F)(F)C(F)(F)C(F)(F)C(F)(F)C(F)(F)C(F)(F)F [Perfluorohexanesulfonamide] | > 100 | > 100 | > 100 | > 100 | > 100 | > 100 | 20.6 | > 100 | > 100 | 14.9 | > 100 | > 100 | > 100 | 6.45 | 96 | 58.4 | > 100 | 49.3 | > 100 | 71.2
OCC(F)(F)C(F)(F)C(F)(F)C(F)(F)C(F)(F)C(F)F [Dodecafluoroheptanol] | > 100 | > 100 | 85.3 | > 100 | > 100 | 58.4 | > 100 | > 100 | > 100 | 95.5 | > 100 | 48.6 | 47.9 | 48.1 | 47.7 | 45.8 | 35.7 | 51.8 | 38.1 | 46.3
O=C(O)C(F)(F)C(F)(F)C(F)(F)C(F)(F)C(F)(F)C(F)(F)C(F)(F)C(F)(F)C(F)(F)F [Perfluorodecanoic_acid] | > 100 | > 100 | > 100 | 67.6 | 81.5 | 5.59 | 75.8 | > 100 | > 100 | > 100 | > 100 | > 100 | > 100 | 67.4 | > 100 | 67.4 | > 100 | 36.5 | 74.6 | > 100
O=C(O)C(F)(F)C(F)(F)C(F)(F)C(F)(F)C(F)(F)F [Perfluorohexanoic_acid] | > 100 | > 100 | > 100 | > 100 | > 100 | > 100 | > 100 | > 100 | > 100 | > 100 | > 100 | > 100 | > 100 | > 100 | > 100 | > 100 | > 100 | > 100 | > 100 | > 100
O=S(=O)(O)C(F)(F)C(F)(F)C(F)(F)C(F)(F)F [Perfluorobutanesulfonic_acid] | > 100 | > 100 | > 100 | > 100 | > 100 | > 100 | > 100 | > 100 | > 100 | > 100 | > 100 | > 100 | > 100 | > 100 | > 100 | > 100 | > 100 | > 100 | > 100 | > 100
OCCC(F)(F)C(F)(F)C(F)(F)C(F)(F)C(F)(F)C(F)(F)F [6:2 Fluorotelomer alcohol] | > 100 | > 100 | > 100 | > 100 | > 100 | > 100 | > 100 | > 100 | > 100 | > 100 | > 100 | > 100 | > 100 | > 100 | > 100 | > 100 | > 100 | > 100 | > 100 | > 100
NC(=O)C(F)(F)C(F)(F)C(F)(F)F [Heptafluorobutyramide] | > 100 | > 100 | > 100 | > 100 | > 100 | > 100 | > 100 | > 100 | > 100 | > 100 | > 100 | > 100 | > 100 | > 100 | > 100 | > 100 | > 100 | > 100 | > 100 | > 100
O=C(O)C(F)(F)C(F)(F)C(F)(F)C(F)(F)C(F)(F)C(F)(F)C(F)(F)F [Perfluorooctanoic_acid] | > 100 | > 100 | > 100 | > 100 | > 100 | > 100 | > 100 | > 100 | > 100 | > 100 | > 100 | > 100 | > 100 | 92.2 | > 100 | > 100 | > 100 | > 100 | > 100 | > 100
O=S(=O)(O)C(F)(F)C(F)(F)C(F)(F)C(F)(F)C(F)(F)C(F)(F)F [Perfluorohexanesulfonic_acid] | > 100 | > 100 | > 100 | > 100 | > 100 | > 100 | > 100 | > 100 | > 100 | > 100 | > 100 | > 100 | > 100 | > 100 | > 100 | > 100 | > 100 | > 100 | > 100 | > 100
O=S(=O)(O)CCC(F)(F)C(F)(F)C(F)(F)C(F)(F)C(F)(F)C(F)(F)C(F)(F)C(F)(F)F [8:2 Fluorotelomer sulfonic acid] | > 100 | > 100 | > 100 | > 100 | > 100 | > 100 | > 100 | > 100 | > 100 | > 100 | > 100 | > 100 | 89.3 | > 100 | > 100 | > 100 | > 100 | > 100 | > 100 | > 100
O=P(O)(O)CCC(F)(F)C(F)(F)C(F)(F)C(F)(F)C(F)(F)C(F)(F)C(F)(F)C(F)(F)F [((Perfluorooctyl)ethyl)phosphonic_acid] | > 100 | > 100 | > 100 | > 100 | > 100 | > 100 | > 100 | > 100 | > 100 | > 100 | > 100 | > 100 | > 100 | > 100 | > 100 | > 100 | > 100 | > 100 | > 100 | > 100
O=C(O)C(F)(F)C(F)(F)C(F)(F)C(F)(F)C(F)(F)C(F)(F)C(F)(F)C(F)(F)F [Perfluorononanoic_acid] | > 100 | > 100 | > 100 | > 100 | > 100 | > 100 | > 100 | > 100 | > 100 | > 100 | > 100 | > 100 | > 100 | 31.5 | > 100 | > 100 | > 100 | 82.8 | > 100 | > 100
N=C(N)C(F)(F)C(F)(F)C(F)(F)C(F)(F)C(F)(F)C(F)(F)C(F)(F)F [Perfluorooctanamidine] | > 100 | > 100 | > 100 | > 100 | > 100 | > 100 | > 100 | > 100 | > 100 | > 100 | > 100 | > 100 | > 100 | > 100 | > 100 | > 100 | > 100 | > 100 | > 100 | > 100
O=C(O)C=C(C(F)(F)F)C(F)(F)F [3,3-Bis(trifluoromethyl)-2-propenoic_acid] | > 100 | > 100 | > 100 | > 100 | > 100 | > 100 | > 100 | > 100 | > 100 | > 100 | > 100 | > 100 | > 100 | > 100 | > 100 | > 100 | > 100 | > 100 | > 100 | > 100
O=C(O)C(F)(F)C(F)(F)C(F)(F)C(F)(F)F [Perfluoropentanoic_acid] | > 100 | > 100 | > 100 | > 100 | > 100 | > 100 | > 100 | > 100 | > 100 | > 100 | > 100 | > 100 | > 100 | > 100 | > 100 | > 100 | > 100 | > 100 | > 100 | > 100
O=C(O)C(F)(F)C(F)(F)C(F)F [2,2,3,3,4,4-Hexafluorobutanoic_acid] | > 100 | > 100 | > 100 | > 100 | > 100 | > 100 | > 100 | > 100 | > 100 | > 100 | > 100 | > 100 | > 100 | > 100 | > 100 | > 100 | > 100 | > 100 | > 100 | > 100
OCC(F)(F)C(F)(F)C(F)(F)F [Heptafluorobutanol] | > 100 | > 100 | > 100 | > 100 | > 100 | > 100 | > 100 | > 100 | > 100 | > 100 | > 100 | > 100 | > 100 | > 100 | > 100 | > 100 | > 100 | > 100 | > 100 | > 100
